Assay results from paper PMC11596563, “N-Aryl Benzimidazole and Benzotriazole Derivatives and Their Hybrids as Cytotoxic Agents: Design, Synthesis and Structure–Activity Relationship Studies” (Molecules, 2024).

Experiments:
A549 = experiment: MTT test, cytotoxic effect; assay type: cell-based; conditions: Homo sapiens, 24 h treatment, 0.1 to 100 µM, concentration that causes 50% cell death
Description: (§1) At the first stage of biological testing, we studied the effect of the synthesized compounds on the survival of cells of both tumoral and normal origin. […] In our work, the cytotoxic profile of the synthesized molecules was assessed using the MTT test, based on the ability of a colorless tetrazolium salt (3-[4,5-dimethylthiazol-2-yl]-2,5-diphenyltetrazolium bromide, MTT) to be reduced to colored formazan in the presence of the mitochondrial enzymes of living cells. For this purpose, a number of cell lines of tumoral origin (SH-SY5Y, A549, MCF-7 and SW-480), as well as normal origin (Hek-293), were used.
(§2) For the experiments, we used tumor cell cultures SH-SY5Y, human neuroblast-like cells, A549, human lung adenocarcinoma, MCF-7, human mammary adenocarcinoma, SW-480 and human colorectal adenocarcinoma, as well as cells of normal origin obtained from human embryonic kidneys, Hek-293.
(§3) All cells were cultured in the Dulbecco Modified Eagle’s Medium (DMEM) with a high glucose content, 10% fetal bovine serum and 1% penicillin-streptomycin as an antibiotic, in a moist incubator with 5% CO2 at 37°C.
(§4) To measure cellular metabolic activity, a colorimetric analysis was performed using the MTT reagent (3-(4,5–dimethylthiazol-2-yl)-2,5-diphenyltetrazolium bromide), which is an inhibitor of viable cells [73, 74].
(§5) • Briefly, cells in the logarithmic growth phase were digested and resuspended to adjust the cell density. The cells were then seeded in 96-well plates at a density of 10,000 cells per well. After 24 h of the incubation of the cells under the standard conditions described above (for the purpose of cell adhesion), the cells were treated with the synthesized compounds at different concentrations (0.1 to 100 µM) or a vehicle alone as a control (1% DMSO) for 24 h. After the incubation time of the cells with synthesized compounds, 5 mg/mL of MTT was added to the cells and incubated for 2 h at 37 °C. Next, the supernatant was discarded; after that, the formazan crystals were dissolved in a DMSO and the absorbance of each well was measured at 570 nm using a multifunctional microplate reader, Cytation3 (Biotech Tools Inc., Winooski, USA).

MCF-7 = experiment: MTT test, cytotoxic effect; assay type: cell-based; conditions: Homo sapiens, MCF7, 24 h treatment, 0.1 to 100 µM, concentration that causes 50% cell death
Description: as §1, §2, §3, §4, §5

[1] = MTT test, cytotoxic effect on cells of normal origin; assay type: cell-based, human; conditions: human, Hek-293 cells (normal origin), 24 h treatment, 0.1 to 100 µM, normal cells, concentration that causes 50% cell death
Description: as §1, §2, §3, §4, §5

SW-480 = experiment: MTT test, cytotoxic effect; assay type: cell-based; conditions: Homo sapiens, SW480, 24 h treatment, 0.1 to 100 µM, concentration that causes 50% cell death
Description: as §1, §2, §3, §4, §5

[2] = tested on: all the tested cell lines (SH-SY5Y, A549, MCF-7, SW-480, Hek-293); experiment: MTT test, summary over all tested cell lines; assay type: cell-based, human; conditions: MTT, range of concentrations studied (0.1 to 100 µM)
Description: as §1
(§6) For the experiments, we used tumor cell cultures SH-SY5Y, human neuroblast-like cells, A549, human lung adenocarcinoma, MCF-7, human mammary adenocarcinoma, SW-480 and human colorectal adenocarcinoma, as well as cells of normal origin obtained from human embryonic kidneys, Hek-293. The cell lines were obtained from the collection of the Institute of Cytology, Russian Academy of Sciences (St. Petersburg, Russia).
as §3, §4
(§7) • Briefly, cells in the logarithmic growth phase were digested and resuspended to adjust the cell density. The cells were then seeded in 96-well plates at a density of 10,000 cells per well. […] Next, the supernatant was discarded; after that, the formazan crystals were dissolved in a DMSO and the absorbance of each well was measured at 570 nm using a multifunctional microplate reader, Cytation3 (Biotech Tools Inc., Winooski, USA).

SH-SY5Y = experiment: cells; conditions: Homo sapiens, 24 h, read-out: IC50 of the cytotoxic effect, SH-SY5Y
Description: as §1, §2, §3, §4, §5

A549 cells = experiment: Wound-healing assay (scratch test); assay type: cell-based, human; conditions: 1 μM; for migration capacity, decrease in the scratch width vs control: 24 h after the damage
Source text: It is also well known that migration and proliferation of cancer cells are key processes involved in the metastatic cascade of malignant neoplasms. In turn, the ability of therapeutic agents to inhibit these processes is considered a promising property of antitumor agents. In this regard, in order to assess the possible antimetastatic potential of cytotoxic diphenylamines 6b, c and d, we analyzed the effect of the substances on the migration and proliferation of tumor cells A549 in a scratch test.
Based on a preliminary series of experiments, 1 μM was chosen as the concentration used in this test, excluding the intrinsic cytotoxic effect of the substances. […] Thus, the data obtained 24 h after the damage was applied allowed us to evaluate the migration capacity of the cells, minimizing the contribution of cell proliferation.
The migration activity of A549 cells was determined by the wound-healing assay (scratch test). To do this, cells (15,000 cells per well) were seeded in a 96-well plate and cultured under the standard conditions described above. After 24 h of incubation, when the cells became 90% confluent, the medium was selected and an identical scratch wound across the center of each well was made by a 200 µL pipette tip.
To remove detached cells, the cell monolayer was washed twice with PBS; after that, the growth media and test compounds at 1 µM (or 1% DMSO as a solvent) were added to each well. A phase contrast microscope at a ×40 magnification was used to take photomicrographs after making the wound and then 24 h, 48 h and 72 h later.
The analysis of the obtained images was calculated using the open-source program ImageJ [80] and a special module: Wound_healing_size_tool.

[3] = tested on: Fe(II)-induced lipid peroxidation (LPO) of rat brain homogenate; experiment: Fe(II)-induced lipid peroxidation, modified TBARS test; assay type: biochemical; conditions: Fe(II) 500 μM, rat brain homogenate 2 mg/mL; for IC50: 1 to 300 μM, read-out: IC50 of the lipid peroxidation inhibitory effect; for decrease in the level of malondialdehyde: compounds at 100 μM
Description: In our work, the antioxidant status of the compounds was determined by their ability to influence the process of Fe(II)-induced lipid peroxidation (LPO) of rat brain homogenate (2 mg/mL). The effect of the substances on LPO was studied using a modified version of the TBA test in a plate format. This test is based on the reaction of 2-thiobarbituric acid with intermediate LPO products, resulting in the formation of a colored trimethine complex, the main role in the formation of which belongs to malondialdehyde. […] This was expressed in a decrease in the level of malondialdehyde in the system by 70, 79 and 71%, respectively, tending to the values of the well-known antioxidant Trolox. Additionally, the IC50 values of the lipid peroxidation inhibitory effect were calculated for these molecules, the values of which are presented in Figure 2B.
To obtain rat brain homogenate, an animal previously anesthetized in a CO2 chamber was decapitated using a guillotine. The brain was homogenized in a buffer containing KCl (120 mM) and HEPES (20 mM), pH = 7.4 at 4 ° C and centrifuged at 1500 g to obtain a supernatant.
The intensity of the lipid peroxidation of the rat brain homogenate was evaluated using a modified TBARS test. […] In the wells of the negative control, the Fe(II) was replaced with water; in samples with a positive control, a solvent was introduced instead of the studied compounds.
At the end of incubation, a TBA reagent ([…] thiobartituric and 1% trichloroacetic acids dissolved in 0.25 N HCl) was added to each well and heated at 90 °C for 90 min.

[4] = MTT test, summary over all tested cell lines; assay type: cell-based, human; conditions: human; all cells, including those of normal origin, Hek-293; read-out: IC50 values of the cytotoxic effect, range over all cells
Description: as §1, §6, §3, §4, §7

Hek-293 = experiment: MTT test, cytotoxic effect on cells of normal origin; assay type: cell-based, human; conditions: Hek-293
Description: as §1, §2, §3, §4, §5

SMILES	IC50 (A549)	IC50 (MCF-7)	IC50 at 24 h [1]	melting point	IC50 (SW-480)	toxic effect on the tested cell lines [2]	IC50 (SH-SY5Y)	unhealed defect area remaining from the original vs control (A549 cells; 48 and 72 h)	migration capacity, decrease in the scratch width vs control (A549 cells)	proliferation coefficient of cells vs control (A549 cells; A549)	IC50 [3]	decrease in the level of malondialdehyde [3]	IC50 at 24 h [4]	ability to suppress the migratory activity of A549 tumor cells (A549 cells; conclusion)	cytotoxic effect on cell line of normal origin (Hek-293)
Nc1cc(C(F)(F)F)ccc1Nc1cc(C(F)(F)F)ccc1-n1cnc2ccccc21 [6a, N-[2-(1H-benzimidazol-1-yl)-5-(trifluoromethyl)phenyl]-2-amino-4-(trifluoromethyl)aniline]	≥ 100 µM	≥ 100 µM	≥ 100 µM	205 to 207 °C	≥ 100 µM	not toxic	≥ 100 µM	–	–	–	–	–	–	–	–
Nc1cc(C(F)(F)F)ccc1Nc1cc(C(F)(F)F)ccc1-n1nnc2ccccc21 [6b, N-[2-(1H-benzotriazol-1-yl)-5-(trifluoromethyl)phenyl]-2-amino-4-(trifluoromethyl)aniline]	26.28 ± 0.02 µM	23.29 ± 0.12 µM	22.4 ± 0.41 µM	170 to 173 °C	25.09 ± 0.24 µM	–	25.98 ± 0.17 µM	significantly increase	did not find any differences	significant decrease	1.68 ± 0.08 µM	70%	22 to 26 µM	–	–
CCOC(=O)c1ccc(Nc2cc(C(F)(F)F)ccc2-n2nnc3ccccc32)c(N)c1 [6c, Ethyl 3-amino-4-[2-(1H-benzotriazol-1-yl)-5-(trifluoromethyl)anilino]benzoate]	37.68 ± 0.2 µM	77.05 ± 0.67 µM	≥ 100 µM	178 to 181 °C	≥ 100 µM	–	20.94 ± 0.13 µM	–	did not find any differences	–	1.11 ± 0.13 µM	79%	–	failed to demonstrate the ability to suppress the migratory activity	did not exert a cytotoxic effect
Nc1cc(C(F)(F)F)ccc1Nc1cc(Cl)ccc1-n1nnc2ccccc21 [6d, N-[2-(1H-benzotriazol-1-yl)-5-chlorophenyl]-2-amino-4-(trifluoromethyl)aniline]	41.4 ± 0.79 µM	33.8 ± 0.64 µM	41.39 ± 0.05 µM	191 to 194 °C	40.38 ± 0.01 µM	–	31.56 ± 0.07 µM	–	did not find any differences	–	2.4 ± 0.05 µM	71%	31 to 41 µM	–	–
